{"source": "ChEMBL document CHEMBL5126592", "about": "“Design, synthesis and activity against drug-resistant bacteria evaluation of C-20, C-23 modified 5-O-mycaminosyltylonolide derivatives” (Eur J Med Chem, 2022)", "key": {"[1]": {"tested_on": "Cronobacter sakazakii", "assay": "Antibacterial activity against Cronobacter sakazakii ATCC 29544 incubated for 16 to 20 hrs by broth microdilution method", "type": "functional", "conditions": "time 16-20 hrs"}, "[2]": {"assay": "Toxicity in Kunming mouse infected with Staphylococcus aureus ATCC 25923 assessed as reduction in neutrophils at 20 to 40 mg/kg, iv measured after 1 hr by hematoxylin and eosin staining based microscopic analysis", "type": "organism-based", "conditions": "in vivo, dose 20-40 mg/kg"}, "[3]": {"tested_on": "Staphylococcus aureus", "assay": "Antibacterial activity against Staphylococcus aureus ATCC 29213 incubated for 16 to 20 hrs using 10^4 CFU/ml bacterial inoculum by broth microdilution method", "type": "functional", "conditions": "time 16-20 hrs"}, "[4]": {"assay": "Genotoxicity in Salmonella typhimurium TA102 assessed as number of revertants at 1x10^-3 mg/plate incubated for 72 hrs in absence of liver S9 fraction by Ames test (reference value: 386.67 +/- 23.44)", "type": "toxicity", "conditions": "salmonella enterica subsp. enterica serovar typhimurium, s9, 72 h"}, "[5]": {"assay": "Genotoxicity in Salmonella typhimurium TA100 assessed as number of revertants at 1.6x10^-6 mg/plate incubated for 72 hrs in presence of liver S9 fraction by Ames test (reference value: 204.33 +/- 8.14)", "type": "toxicity, subcellular", "conditions": "salmonella enterica subsp. enterica serovar typhimurium, s9, 72 h"}, "[6]": {"tested_on": "Staphylococcus aureus", "assay": "Antibacterial activity against Staphylococcus aureus ATCC 29213 incubated for 16 to 20 hrs using 10^5 CFU/ml bacterial inoculum by broth microdilution method", "type": "functional", "conditions": "time 16-20 hrs"}, "[7]": {"tested_on": "Escherichia coli", "assay": "Induction of drug resistance in Escherichia coli ATCC 25922 assessed as increase in MIC measured after 30 passages by broth microdilution method", "type": "functional"}, "[8]": {"tested_on": "Staphylococcus aureus", "assay": "Antibacterial activity against Staphylococcus aureus ATCC 25923 infected in kunming mouse assessed as reduction in viable pathogens at 20 mg/kg, iv measured after 1 hr", "type": "functional, organism-based"}, "[9]": {"assay": "Toxicity in Kunming mouse infected with Staphylococcus aureus ATCC 25923 assessed as normal alveolar size and morphology at 20 to 40 mg/kg, iv measured after 1 hr by hematoxylin and eosin staining based microscopic analysis", "type": "organism-based", "conditions": "in vivo, dose 20-40 mg/kg"}, "[10]": {"tested_on": "Escherichia coli", "assay": "Antibacterial activity against Escherichia coli ATCC 25922 at pH 7.2 incubated for 16 to 20 hrs by broth microdilution method", "type": "functional", "conditions": "time 16-20 hrs"}, "[11]": {"assay": "Genotoxicity in Salmonella typhimurium TA100 assessed as number of revertants at 1x10^-3 mg/plate incubated for 72 hrs in presence of liver S9 fraction by Ames test (reference value: 204.33 +/- 8.14)", "type": "toxicity, subcellular", "conditions": "salmonella enterica subsp. enterica serovar typhimurium, s9, 72 h"}, "[12]": {"assay": "Genotoxicity in Salmonella typhimurium TA100 assessed as number of revertants at 1x10^-3 mg/plate incubated for 72 hrs in absence of liver S9 fraction by Ames test (reference value: 221.67 +/- 15.57)", "type": "toxicity", "conditions": "salmonella enterica subsp. enterica serovar typhimurium, s9, 72 h"}, "[13]": {"tested_on": "Escherichia coli", "assay": "Antibacterial activity against Escherichia coli ATCC 25922 at pH 7.4 incubated for 16 to 20 hrs by broth microdilution method", "type": "functional", "conditions": "time 16-20 hrs"}, "[14]": {"tested_on": "Enterococcus faecium", "assay": "Antibacterial activity against Enterococcus faecium incubated for 16 to 20 hrs by broth microdilution method", "type": "functional", "conditions": "time 16-20 hrs"}, "[15]": {"tested_on": "Staphylococcus aureus", "assay": "Antibacterial activity against Staphylococcus aureus ATCC 29213 at pH 8 incubated for 16 to 20 hrs by broth microdilution method", "type": "functional", "conditions": "time 16-20 hrs"}, "[16]": {"assay": "Genotoxicity in Salmonella typhimurium TA102 assessed as number of revertants at 8x10^-6 mg/plate incubated for 72 hrs in presence of liver S9 fraction by Ames test (reference value: 465.33 +/- 18.04)", "type": "toxicity, subcellular", "conditions": "salmonella enterica subsp. enterica serovar typhimurium, s9, 72 h"}, "[17]": {"assay": "Genotoxicity in Salmonella typhimurium TA102 assessed as number of revertants at 2x10^-4 mg/plate incubated for 72 hrs in presence of liver S9 fraction by Ames test (reference value: 465.33 +/- 18.04)", "type": "toxicity, subcellular", "conditions": "salmonella enterica subsp. enterica serovar typhimurium, s9, 72 h"}, "[18]": {"assay": "Genotoxicity in Salmonella typhimurium TA98 assessed as number of revertants at 1x10^-3 mg/plate incubated for 72 hrs in absence of liver S9 fraction by Ames test (reference value: 57.33 +/- 3.06)", "type": "toxicity", "conditions": "salmonella enterica subsp. enterica serovar typhimurium, s9, 72 h"}, "[19]": {"tested_on": "Escherichia coli", "assay": "Antibacterial activity against Escherichia coli ATCC 25922 at pH 8.2 incubated for 16 to 20 hrs by broth microdilution method", "type": "functional", "conditions": "time 16-20 hrs"}, "[20]": {"tested_on": "Staphylococcus aureus", "assay": "Antibacterial activity against Staphylococcus aureus ATCC 29213 at pH 7 incubated for 16 to 20 hrs by broth microdilution method", "type": "functional", "conditions": "time 16-20 hrs"}, "[21]": {"assay": "Genotoxicity in Salmonella typhimurium TA1535 assessed as number of revertants at 1.6x10^-6 mg/plate incubated for 72 hrs in presence of liver S9 fraction by Ames test (reference value: 15.33 +/- 2.52)", "type": "toxicity, subcellular", "conditions": "salmonella enterica subsp. enterica serovar typhimurium, s9, 72 h"}, "[22]": {"tested_on": "Escherichia coli", "assay": "Antibacterial activity against Escherichia coli ATCC 25922 at pH 8.6 incubated for 16 to 20 hrs by broth microdilution method", "type": "functional", "conditions": "time 16-20 hrs"}, "[23]": {"tested_on": "Escherichia coli", "assay": "Antibacterial activity against Escherichia coli ATCC 25922 incubated for 16 to 20 hrs using 10^7 CFU/ml bacterial inoculum by broth microdilution method", "type": "functional", "conditions": "time 16-20 hrs"}, "[24]": {"tested_on": "Escherichia coli", "assay": "Antibacterial activity against Escherichia coli ATCC 25922 at pH 7.8 incubated for 16 to 20 hrs by broth microdilution method", "type": "functional", "conditions": "time 16-20 hrs"}, "[25]": {"tested_on": "Staphylococcus aureus", "assay": "Antibacterial activity against Staphylococcus aureus ATCC 29213 at pH 6.6 incubated for 16 to 20 hrs by broth microdilution method", "type": "functional", "conditions": "time 16-20 hrs"}, "[26]": {"assay": "Genotoxicity in Salmonella typhimurium TA98 assessed as number of revertants at 1.6x10^-6 mg/plate incubated for 72 hrs in absence of liver S9 fraction by Ames test (reference value: 57.33 +/- 3.06)", "type": "toxicity", "conditions": "salmonella enterica subsp. enterica serovar typhimurium, s9, 72 h"}, "[27]": {"tested_on": "Escherichia coli", "assay": "Antibacterial activity against Escherichia coli ATCC 25922 incubated for 16 to 20 hrs in presence of 5% foetal bovine serum by broth microdilution method", "type": "functional", "conditions": "time 16-20 hrs"}, "[28]": {"assay": "Genotoxicity in Salmonella typhimurium TA100 assessed as number of revertants at 2x10^-4 mg/plate incubated for 72 hrs in presence of liver S9 fraction by Ames test (reference value: 204.33 +/- 8.14)", "type": "toxicity, subcellular", "conditions": "salmonella enterica subsp. enterica serovar typhimurium, s9, 72 h"}, "[29]": {"assay": "Genotoxicity in Salmonella typhimurium TA102 assessed as number of revertants at 4x10^-5 mg/plate incubated for 72 hrs in absence of liver S9 fraction by Ames test (reference value: 386.67 +/- 23.44)", "type": "toxicity", "conditions": "salmonella enterica subsp. enterica serovar typhimurium, s9, 72 h"}, "[30]": {"assay": "Genotoxicity in Salmonella typhimurium TA1537 assessed as number of revertants at 1.6x10^-6 mg/plate incubated for 72 hrs in presence of liver S9 fraction by Ames test (reference value: 20 +/- 5)", "type": "toxicity, subcellular", "conditions": "salmonella enterica subsp. enterica serovar typhimurium, s9, 72 h"}, "[31]": {"assay": "Toxicity in Kunming mouse infected with Staphylococcus aureus ATCC 25923 assessed as intact lung tissue structure at 20 to 40 mg/kg, iv measured after 1 hr by hematoxylin and eosin staining based microscopic analysis", "type": "organism-based", "conditions": "in vivo, dose 20-40 mg/kg"}, "[32]": {"tested_on": "Staphylococcus aureus", "assay": "Antibacterial activity against Staphylococcus aureus ATCC 29213 at pH 7.4 incubated for 16 to 20 hrs by broth microdilution method", "type": "functional", "conditions": "time 16-20 hrs"}, "[33]": {"tested_on": "Escherichia coli", "assay": "Antibacterial activity against Escherichia coli ATCC 25922 at pH 8 incubated for 16 to 20 hrs by broth microdilution method", "type": "functional", "conditions": "time 16-20 hrs"}, "[34]": {"tested_on": "Staphylococcus aureus", "assay": "Antibacterial activity against Staphylococcus aureus ATCC 29213 at pH 8.6 incubated for 16 to 20 hrs in presence of 50% foetal bovine serum by broth microdilution method", "type": "functional", "conditions": "time 16-20 hrs"}, "[35]": {"tested_on": "Staphylococcus aureus", "assay": "Antibacterial activity against Staphylococcus aureus incubated for 16 to 20 hrs by broth microdilution method", "type": "functional", "conditions": "time 16-20 hrs"}, "[36]": {"tested_on": "Klebsiella pneumoniae", "assay": "Antibacterial activity against Klebsiella pneumoniae ATCC 13883 incubated for 16 to 20 hrs by broth microdilution method", "type": "functional", "conditions": "time 16-20 hrs"}}, "note": "Calls of active or inactive are those of the source. The calls are words filed in the database; no cut-off is given here.", "data": [{"compound": "CC[C@H]1OC(=O)C[C@@H](O)[C@H](C)[C@@H](O[C@@H]2O[C@H](C)[C@@H](O)[C@H](N(C)C)[C@H]2O)[C@@H](CCN(C)Cc2cn(-c3cnc4ccccc4c3)nn2)C[C@@H](C)C(=O)/C=C/C(C)=C/[C@@H]1CN1CCCCCC1", "values": [{"measurement": "MIC", "setting": "[1]", "value": 4, "unit": "µg/mL"}, {"measurement": "Activity", "setting": "[2]", "value": "Non-Toxic"}, {"measurement": "MIC", "setting": "[3]", "value": 0.125, "unit": "µg/mL"}, {"measurement": "Activity", "setting": "[4]", "value": 418}, {"measurement": "Activity", "setting": "[5]", "value": 162.67}, {"measurement": "MIC", "setting": "[6]", "value": 0.125, "unit": "µg/mL"}, {"measurement": "Activity", "setting": "[7]", "value": "Active"}, {"measurement": "Activity", "setting": "[8]", "value": "Active"}, {"measurement": "Activity", "setting": "[9]", "value": "Non-Toxic"}, {"measurement": "MIC", "setting": "[10]", "value": 1, "unit": "µg/mL"}, {"measurement": "Activity", "setting": "[11]", "value": 174.67}, {"measurement": "Activity", "setting": "[12]", "value": 231}, {"measurement": "MIC", "setting": "[13]", "value": 1, "unit": "µg/mL"}, {"measurement": "MIC", "setting": "[14]", "value": 1, "unit": "µg/mL"}, {"measurement": "MIC", "setting": "[15]", "value": "≤ 0.0625", "unit": "µg/mL"}, {"measurement": "Activity", "setting": "[16]", "value": 466.67}, {"measurement": "Activity", "setting": "[17]", "value": 456.67}, {"measurement": "Activity", "setting": "[18]", "value": 60.33}, {"measurement": "MIC", "setting": "[19]", "value": 0.25, "unit": "µg/mL"}, {"measurement": "MIC", "setting": "[20]", "value": 2, "unit": "µg/mL"}, {"measurement": "Activity", "setting": "[21]", "value": 16.33}, {"measurement": "MIC", "setting": "[22]", "value": 0.25, "unit": "µg/mL"}, {"measurement": "MIC", "setting": "[23]", "value": 1, "unit": "µg/mL"}, {"measurement": "MIC", "setting": "[24]", "value": 0.5, "unit": "µg/mL"}, {"measurement": "MIC", "setting": "[25]", "value": 32, "unit": "µg/mL"}, {"measurement": "Activity", "setting": "[26]", "value": 64.33}, {"measurement": "MIC", "setting": "[27]", "value": 1, "unit": "µg/mL"}, {"measurement": "Activity", "setting": "[28]", "value": 220.67}, {"measurement": "Activity", "setting": "[29]", "value": 429.33}, {"measurement": "Activity", "setting": "[30]", "value": 15}, {"measurement": "Activity", "setting": "[31]", "value": "Non-Toxic"}, {"measurement": "MIC", "setting": "[32]", "value": 0.25, "unit": "µg/mL"}, {"measurement": "MIC", "setting": "[33]", "value": 0.25, "unit": "µg/mL"}, {"measurement": "MIC", "setting": "[34]", "value": 2, "unit": "µg/mL"}, {"measurement": "MIC", "setting": "[35]", "value": 0.25, "unit": "µg/mL"}, {"measurement": "MIC", "setting": "[36]", "value": 1, "unit": "µg/mL"}]}]}
